Data reported in US8455448B2, “Myostatin isoform” (Myostin Therapeutics Pty Ltd, priority 2004, dated 2013).
Where no end group is shown, it is not given here.

What was measured:
[1] = tested on: human skeletal muscle myoblasts; test: Proliferation assay of human primary myoblasts (methylene blue); assay type: cell-based
Method: (§1) Human skeletal muscle myoblasts (Cambrex, Australia) were seeded in 96-well tissue culture plates (Nunc, Roskilde, Denmark) at a cell density of 2000 cells per well in 200 μl of Skeletal Muscle Basal Medium (Cambrex, Australia) supplemented with foetal bovine serum (FBS, 10% v/v, Cambrex, Australia), and incubated overnight at 37° C. with 5% CO2. The medium was replaced with Dulbecco's modified Eagle's medium (DMEM, Invitrogen, California) supplemented with 5% foetal bovine serum (FBS, Invitrogen, California), penicillin (1×10^5 IU/l, Sigma, St Louis, Mo., USA) and streptomycin (100 mg/l, Sigma) buffered with NaHCO3 containing phenol red (7.22 nmol/l) as a pH indicator with 0, 0.1, 1, 5 and 10 μg/ml rhMSV38 or roMSV47 protein in a semi-random arrangement of eight replicates (n=8) for each test medium. Plates were incubated at 37° C. with 5% CO2 for 96 hours, and then the medium was removed. The wells were washed with 200 μl of phosphate buffered saline (PBS, Oxoid, UK) buffer and fixed with 100 μl of 10% formaldehyde, 0.9% NaCl solution for at least one hour. The fixative was then removed and 100 μl of 1% methylene blue stain in 0.01 M borate buffer (pH 8.5) was added to each well and incubated for 30 min at room temperature. Excess stain was removed by four sequential washes in borate buffer. Methylene blue was eluted from the cells by the addition of 100 μl 1:1 (v/v) ethanol/0.1 HCl. The plates were gently shaken and the absorbance was measured at 655 nm using a microplate photometer (VersaMax, Molecular Devices, CA).
Human skeletal muscle myoblasts (Cambrex, Australia) were seeded in 96-well tissue culture plates (Nunc, Roskilde, Denmark) at a cell density of 2000 cells per well in 200 μl of Skeletal Muscle Basal Medium (Cambrex, Australia) supplemented with foetal bovine serum (FBS, 10% v/v, Cambrex, Australia), and incubated overnight at 37° C. with 5% CO2. The medium was replaced with Dulbecco's modified Eagle's medium (DMEM, Invitrogen, California) supplemented with 5% foetal bovine serum (FBS, Invitrogen, California), penicillin (1×10^5 IU/l, Sigma, St Louis, Mo., USA) and streptomycin (100 mg/l, Sigma) buffered with NaHCO3 containing phenol red (7.22 nmol/l) as a pH indicator with no added protein, 1.5 or 3.0 μg/ml recombinant bovine mature myostatin alone and with combination of 0.3, 1, 3, 10 molar ratio of rhMSV38 to myostatin, and the same amounts of rhMSV38 without myostatin in a semi-random arrangement of eight replicates (n=8) for each test medium. Plates were incubated at 37° C. with 5% CO2 for 48 hours, and then the medium was removed. […] The plates were gently shaken and the absorbance was measured at 655 nm using a microplate photometer (VersaMax, Molecular Devices, CA).

murine C2C12 myoblasts = test: Proliferation assay of C2C12 murine myoblasts (methylene blue, absorbance 655 nm); assay type: cell-based
Method: (§2) Myoblasts were seeded in 96-well tissue culture plates (Nunc, Roskilde, Denmark) at a cell density of 1000 cells per well in 200 μl of Dulbecco's modified Eagle's medium (DMEM, Invitrogen, California) supplemented with foetal bovine serum (FBS, 10% v/v, Invitrogen), penicillin (1×10^5 IU/l, Sigma, St Louis, Mo., USA) and streptomycin (100 mg/l, Sigma) buffered with NaHCO3 containing phenol red (7.22 nmol/l) as a pH indicator, and incubated overnight at 37° C. with 5% CO2. Medium was replaced with DMEM 10% FBS test medium containing 0, 0.001, 0.003, 0.01, 0.03, 0.1, 0.3, 1, 3 or 10 μg/ml oMSV65 in a semi-random arrangement of eight replicates (n=8) for each test medium. Plates were incubated at 37° C. with 5% CO2 for 72 hours, and then the medium was removed. The wells were washed with 200 μl of phosphate buffered saline (PBS, Oxoid, UK) and fixed with 100 μl of 10% formaldehyde, 0.9% NaCl solution for at least one hour. The fixative was then removed and 100 μl of 1% methylene blue stain in 0.01 M borate buffer (pH 8.5) was added to each well and incubated for 30 min at room temperature. Excess stain was removed by four sequential washes in borate buffer. Methylene blue was eluted from the cells by the addition of 100 μl 1:1 (v/v) ethanol/0.1 HCl. The plates were gently shaken and the absorbance was measured at 655 nm using a microplate photometer (FIGS. 3a and 3b).
as §2, with “0,” for “0, 0.001, 0.003,”, “0.01,” for “0.01, 0.03,”, “1” for “0.3, 1, 3”, “oMSV47” for “oMSV65”, “60” for “72”, “(FIG. 9).” for “(FIGS. 3a and 3b).”
Myoblasts were seeded in 96-well tissue culture plates (Nunc, Roskilde, Denmark) at a cell density of 1000 cells per well in […] of Dulbecco's modified Eagle's medium (DMEM, Invitrogen, California) supplemented with foetal bovine serum (FBS, 10% v/v, Invitrogen), penicillin (1×10^5 IU/l, Sigma, St Louis, Mo., USA) and streptomycin (100 mg/l, Sigma) buffered with NaHCO3 containing phenol red (7.22 nmol/l) as a pH indicator, and incubated overnight at 37° C. with 5% CO2. Medium was replaced with DMEM 2.5% FBS test medium containing 0, 0.01, 0.1, 1, 5 or 10 μg/ml of the respective peptides in a semi-random arrangement of eight replicates (n=8) for each test medium. Plates were incubated at 37° C. with 5% CO2 for 80 hours, and then the medium was removed. The wells were washed with 200 μl of phosphate buffered saline (PBS, Oxoid, UK) and fixed with 100 μl of 10% formaldehyde, 0.9% NaCl solution for at least one hour. The fixative was then removed and 100 μl of 1% methylene blue stain in 0.01 M borate buffer (pH 8.5) was added to each well and incubated for 30 min at room temperature. Excess stain was removed by four sequential washes in borate buffer. Methylene blue was eluted from the cells by the addition of 100 μl 1:1 (v/v) ethanol/0.1 HCl. […]

myostatin = target: T1, myostatin (Bos taurus, UniProt O18836); test: rhMSV38/mature myostatin competition in human primary myoblast proliferation assay; assay type: cell-based, bovine; conditions: FIG. 13
T1 sequence (O18836 267-375): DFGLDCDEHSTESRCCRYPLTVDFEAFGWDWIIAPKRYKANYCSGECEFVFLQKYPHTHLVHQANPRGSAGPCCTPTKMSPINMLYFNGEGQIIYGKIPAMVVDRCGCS
Method: as §1, with “with no added protein, 1.5 or 3.0 μg/ml recombinant bovine mature myostatin alone and with combination of 0.3,” for “with 0, 0.1,”, “1, 3, 10 molar ratio of rhMSV38 to myostatin,” for “1, 5”, “and the same amounts of” for “and 10 μg/ml”, “rhMSV38 without myostatin” for “rhMSV38 or roMSV47 protein”, “for 48” for “for 96”

In the case of “myostatin: recombinant bovine mature myostatin, negative regulator of muscle growth [reference compound]”, the “proliferation of human myoblasts under myostatin” value ([1]; 1.5 or 3 μg/ml Mstn, 48 h, FIG. 13) is reported as “inhibitory effect” and the “myoblast proliferation under myostatin” value (murine C2C12 myoblasts; 1.5 μg/ml myostatin, C2C12, FIG. 9) is reported as “inhibited myoblast proliferation”.
With “rhMSV38: recombinant human MSV38 expressed in E. coli (VHFPTPPNEEWIFFNVRRIIFLEVGFQFCSILGETALS; not fully specified)” the “overcoming the inhibitory effect of myostatin on proliferation of human myoblasts” value (myostatin; 1.5 μg/ml Mstn, 48 h) was “able to overcome the inhibitory effect of myostatin”, the “antagonism of myostatin, proliferation relative to controls” value (myostatin; 1:10 molar ratio of myostatin to rhMSV38, 48 h) was “increases proliferation beyond that of controls” and the “molar ratio rhMSV38:myostatin at which restoration was achieved” value (myostatin; double the concentration of myostatin (3 μg/ml Mstn), 48 h) was 1 × molar ratio. For the same substance, the “proliferation of human myoblasts” value ([1]; 0-10 μg/ml, 96 h, FIG. 12B) was “stimulate myoblast proliferation”, the “proliferation of human primary myoblasts” value ([1]; rhMSV38 without myostatin, 48 h, FIG. 13) was “stimulate proliferation of human primary myoblasts in a dose dependent manner” and the “proliferation of murine C2C12 myoblasts” value (murine C2C12 myoblasts; 0-10 μg/ml, DMEM 2.5% FBS, 80 h, FIG. 12A and FIG. 17) was “stimulate myoblast proliferation”.
